In BigSolDB 2.1:

N[C@@H](Cc1c[nH]c2ccccc12)C(=O)O
solubility (mole fraction)
Conditions	in acetone	in acetonitrile	in ethanol	in ethyl acetate	in isopropanol	in methanol	in n-butanol	in water
278.15 K	0.0001	1e-05	0.00012	4e-05	0.00011	0.00062	0.0001	0.00098
283.15 K	0.00011	2e-05	0.00013	5e-05	0.00012	0.00066	0.00011	0.00105
288.15 K	0.00013	2e-05	0.00014	7e-05	0.00014	0.00072	0.00012	0.00113
293.15 K	0.00015	3e-05	0.00017	9e-05	0.00015	0.0008	0.00014	0.00124
298.15 K	0.00018	4e-05	0.0002	0.00011	0.00018	0.0009	0.00017	0.00137
303.15 K	0.00022	5e-05	0.00024	0.00014	0.00021	0.00102	0.0002	0.00154
308.15 K	0.00026	7e-05	0.00028	0.00018	0.00024	0.00115	0.00024	0.00174
313.15 K	0.00031	8e-05	0.00033	0.00023	0.00028	0.00131	0.00028	0.00199
318.15 K	0.00037	0.0001	0.00038	0.00028	0.00033	0.00149	0.00034	0.00229
323.15 K	0.00045	0.00012	0.00044	0.00034	0.00037	0.00166	0.0004	0.00261
328.15 K	0.00056	0.00014	0.0005	0.00041	0.00043	0.00189	0.00049	0.00294
333.15 K	0.00069	0.00017	0.00058	0.0005	0.0005	0.00217	0.00059	0.00328
